According to the NIST ThermoML archive (doi:10.1016/j.jct.2017.08.028):

Experiment: molar heat capacity at constant pressure
Settings: 101.33 kPa, Crystal, Small (less than 1 g) adiabatic calorimetry

O[C@H]1[C@H](O)[C@@H](O)[C@H](O)[C@@H](O)[C@H]1O [cis-1,2,3,5-trans-4,6-cyclohexanehexol]
Settings	molar heat capacity at constant pressure [J/K/mol]
5 K	0.095
6 K	0.1967
7 K	0.3623
8 K	0.6094
8.37 K	0.774
8.4 K	0.78
8.51 K	0.803
8.64 K	0.841
8.77 K	0.885
8.91 K	0.93
9 K	0.9596
9.05 K	0.977
9.2 K	1.034
9.34 K	1.096
9.5 K	1.162
9.65 K	1.224
9.81 K	1.296
9.98 K	1.381
10 K	1.387
10.17 K	1.467
10.39 K	1.577
10.59 K	1.677
10.81 K	1.817
11.05 K	1.945
11.28 K	2.084
11.52 K	2.218
11.76 K	2.363
12 K	2.535
12.25 K	2.7
12.5 K	2.861
12.75 K	3.034
13.01 K	3.189
13.27 K	3.362
13.53 K	3.524
13.81 K	3.727
14.08 K	3.897
14.35 K	4.078
14.63 K	4.226
14.91 K	4.431
15 K	4.502
15.19 K	4.618
15.47 K	4.81
15.75 K	4.99
16.04 K	5.208
16.32 K	5.4
16.61 K	5.588
16.9 K	5.795
17.2 K	5.99
17.49 K	6.202
17.78 K	6.394
18.08 K	6.622
18.37 K	6.852
18.67 K	7.06
18.97 K	7.278
19.27 K	7.496
19.57 K	7.721
19.87 K	7.949
20 K	8.03
20.46 K	8.428
21.33 K	9.104
22.21 K	9.711
23.1 K	10.41
24 K	11.09
24.9 K	11.77
25 K	11.83
25.81 K	12.44
26.73 K	13.12
27.66 K	13.84
28.59 K	14.6
30 K	15.78
30.38 K	16.06
31.42 K	16.86
32.38 K	17.74
33.35 K	18.4
34.31 K	19.3
35 K	19.73
35.28 K	20.02
36.25 K	20.7
37.23 K	21.47
38.21 K	22.22
39.19 K	22.99
40 K	23.57
40.18 K	23.66
41.16 K	24.37
42.15 K	25.13
43.15 K	25.81
44.14 K	26.63
45 K	27.22
45.14 K	27.34
46.17 K	28.07
47.17 K	28.86
48.17 K	29.58
49.18 K	30.39
50 K	30.99
50.18 K	31.12
51.2 K	31.92
53.79 K	33.97
54.97 K	34.9
55.99 K	35.65
57.01 K	36.49
58.03 K	37.34
59.05 K	38.14
60 K	38.84
60.07 K	38.87
61.1 K	39.73
62.12 K	40.52
63.15 K	41.35
64.17 K	42.18
65.2 K	43.06
66.23 K	43.91
67.26 K	44.68
68.29 K	45.54
69.32 K	46.48
70 K	46.97
70.38 K	47.25
71.85 K	48.53
73.87 K	50.14
75.89 K	51.78
77.91 K	53.41
78.79 K	54.18
79.15 K	54.64
79.8 K	55.07
80 K	55.23
80.92 K	56.01
81.14 K	56.14
83.15 K	57.79
85.15 K	59.59
87.15 K	61.09
89.15 K	62.93
90 K	63.55
91.14 K	64.62
93.14 K	66.21
95.13 K	67.8
97.12 K	69.47
99.11 K	71.03
100 K	71.84
101.58 K	73.24
104.56 K	75.65
107.54 K	78.02
110 K	80.06
110.53 K	80.42
113.53 K	82.88
116.54 K	85.33
119.54 K	87.73
120 K	88.17
122.54 K	90.16
125.55 K	92.54
128.56 K	94.96
130 K	96.15
131.58 K	97.38
134.6 K	99.81
137.62 K	102.1
140 K	104
140.65 K	104.5
143.68 K	106.9
146.71 K	109.2
149.74 K	111.6
150 K	111.7
152.78 K	113.9
155.81 K	116.2
158.85 K	118.6
160 K	119.4
161.89 K	120.9
164.97 K	123.2
168.01 K	125.5
170 K	126.9
171.06 K	127.7
174.1 K	130
177.15 K	132.3
180 K	134.3
180.2 K	134.4
183.25 K	136.7
186.3 K	138.9
189.35 K	141.2
190 K	141.7
192.4 K	143.5
195.46 K	145.6
198.52 K	147.8
200 K	149.1
201.57 K	150.1
204.63 K	152.3
208.19 K	155.1
210 K	156.4
212.26 K	158
216.41 K	161.2
220 K	163.7
220.48 K	164
224.57 K	167.1
228.65 K	170.1
230 K	171.1
232.72 K	173.2
236.81 K	176.2
240 K	178.5
240.91 K	179.3
245 K	182.3
249.09 K	185.2
250 K	185.9
253.18 K	188.2
257.27 K	191.3
260 K	193.4
261.36 K	194.4
265.46 K	197.6
269.55 K	200.6
270 K	200.9
273.15 K	203.2
273.64 K	203.7
277.73 K	206.6
280 K	208.4
281.9 K	210
285.98 K	212.8
290 K	216
290.07 K	215.9
294.15 K	219
298.15 K	222.1
298.22 K	222
300 K	223.5
303.01 K	226
308.39 K	230
310 K	231.1
313.76 K	234
319.12 K	237.9
320 K	238.7
324.46 K	241.9
329.77 K	246
330 K	246.2
335.05 K	250.1
340 K	253.7
340.3 K	253.9
